Laboratory results taken from patent US20070059269A1, “Administration of 8-hexadecene-1,16-dicarboxylic acid for promoting cohesion of the epidermal horny layer” (L'OREAL, priority 2005, published 2007).

Legend:
Type in all cases: cell-based
Cdsn (corneodesmosine) = test: Differential expression by cDNA minichips in NHEK: corneodesmosine (Cdsn); settings: normal human epidermal keratinocytes (NHEK), cDNA array
Procedure: (§1) Analysis of the Differential expression by Minichips:
(§2) In order to study the activity of a product on the formation of the horny layer, the effect of the product on the expression of genes known to be modulated in keratinocytes during their transformation into corneocytes is analyzed.
(§3) The analysis is performed using dedicated minichips, consisting of cDNA membrane arrays known to those skilled in the art for their relationship with re-epithelialization and/or cohesion of the horny layer, especially such as the LEP proteins (late epidermal proteins), corneodesmosines and epidermal growth factor HBEGF (human heparin-binding EGF-like growth factor).
(§4) The cell model used comprises normal human epidermal keratinocytes (NHEK). The keratinocytes are cultured in SFM medium with 0.25 ng/ml EGF and 25 μg/ml of pituitary extract at 37° C. and 5% CO2. The keratinocytes are inoculated in 25 cm^2 dishes and precultured in whole SFM medium, and then placed in EGF-free and pituitary extract-free SFM medium.
(§5) The test products are applied at the non-irritant and non-cytotoxic concentrations defined in a).
(§6) The controls correspond to the same conditions, in the absence of product.
(§7) The cells are then rinsed with PBS and then lysed and the messenger RNA is extracted and purified using the kit Chemagic mRNA Direct kit marketed by Chemagen.
(§8) The RNA of each culture is then reverse-transcripted using a pool of primers corresponding to the cDNAs immobilized on the membranes (probes) and a ^33P-labelled deoxynucleotide triphosphate.
(§9) Multiple cDNA “target” labeled sequences were thus prepared for each culture. These targets were then hybridized, under optimal conditions, with the excess “probe” cDNAs bound to the membranes. […] The membrane analysis was performed using the ImageQuant TL software (Image Analysis, Amersham Biosciences) and the data recorded were then processed on Excel. The differential expression of the various genes following the treatment is thus measured by comparison with the corresponding control.

LEP16 = test: Differential expression by cDNA minichips in NHEK: LEP16; settings: normal human epidermal keratinocytes (NHEK), cDNA array
Procedure: as §1, §2, §3, §4, §5, §6, §7, §8, §9

[1] = tested on: HBEGF (human heparin-binding EGF-like growth factor); test: Differential expression by cDNA minichips in NHEK: HBEGF; settings: 1 μg/ml, normal human epidermal keratinocytes (NHEK), cDNA array
Procedure: as §1, §2, §3
as §4, with “medium. […]” for “medium.”
Multiple cDNA “target” labeled sequences were thus prepared for each culture. […] The membrane analysis was performed using the ImageQuant TL software (Image Analysis, Amersham Biosciences) and the data recorded were then processed on Excel. The differential expression of the various genes following the treatment is thus measured by comparison with the corresponding control.

[2] = 1 μg/ml, listed as 8-hexadecene-1,16-dicarboxylic acid

Compound: O=C1O[C@H]([C@@H](O)CO)C(O)=C1O [Ascorbic acid, reference compound]
- Markers for intercorneocytic cohesion (Cdsn): Cdsn expression, multiplicative factor vs control (Cdsn (corneodesmosine); 100 μg/ml): Cdsn (×1.7)

Compound: O=C(O)CCCCCCCC=CCCCCCCCC(=O)O [Dioic acid, 8-hexadecene-1,16-dicarboxylic acid]
- Markers for the formation of the horny layer (LEP): LEP16 expression, multiplicative factor vs control (LEP16; 1 μg/ml): LEP16 (×3.0)
- Markers for the formation of the horny layer (LEP): LEP16 expression, multiplicative factor vs control (LEP16; [2]): capable of stimulating the expression
- Markers for intercorneocytic cohesion (Cdsn): Cdsn expression, multiplicative factor vs control (Cdsn (corneodesmosine); 1 μg/ml): Cdsn (×2.4)
- Markers for intercorneocytic cohesion (Cdsn): Cdsn expression, multiplicative factor vs control (Cdsn (corneodesmosine); [2]): capable of stimulating the expression
- Re-epithelialization markers: HBEGF expression, multiplicative factor vs control [1]: HBEGF (×1.6)
- Re-epithelialization markers: HBEGF expression, multiplicative factor vs control ([1]; listed as 8-hexadecene-1,16-dicarboxylic acid): capable of stimulating the expression

Compound: O=C(O)CO [Glycolic acid, reference compound]
- Markers for the formation of the horny layer (LEP): LEP16 expression, multiplicative factor vs control (LEP16; 100 μg/ml): LEP16 (×2.6)
- Markers for intercorneocytic cohesion (Cdsn): Cdsn expression, multiplicative factor vs control (Cdsn (corneodesmosine); 100 μg/ml): Cdsn (×1.6)

Compound: CC(O)C(=O)O (stereo not shown) [Lactic acid, reference compound]
- Markers for the formation of the horny layer (LEP): LEP16 expression, multiplicative factor vs control (LEP16; 100 μg/ml): LEP16 (×1.6)
